Data as given in patent US9073901B2, “DGAT2 inhibitors” (Eli Lilly and Company, priority 2013, dated 2015).

Key:
[1] = test system: LDL-c, VLDL-c and TG serum concentrations; assay: In Vivo Efficacy Model (LDL receptor-deficient mice); conditions: male LDL receptor-deficient mice, fourteen days, serum vs control group
Description: This assay measures the potency of compounds by measuring the reduction in low density lipoprotein cholesterol (LDL-c), very low density lipoprotein cholesterol (VLDL-c), and triglycerides (TG). Male, LDL receptor-deficient mice (29 weeks old, each approximately 30 g in weight) are used in this assay.
Feed the mice a standard mouse chow diet for two weeks prior to dosing. Prepare a test solution for oral gavage by suspend the compounds in acacia at 0.3, 1, and 3 mg/mL. Separate the mice into a test group and a control group. Thereafter at the first day of the third week dose the mice in the test group with the test solution for fourteen days, BID. Similarly dose the mice in the control group with just the vehicle without any of the test compound. Four hours after the last dose euthanized the mice with CO2. Immediately collect the blood via cardiac puncture. Isolate the serum to measure serum triglycerides as well as cholesterol in individual lipoprotein fractions. Separate the lipoprotein fractions by known HPLC methods. Determine the cholesterol concentration associated with each lipoprotein fraction by a colorimetric method (Roche Cholesterol/HP Reagent 11875540), using isolated lipoprotein fractions with known cholesterol concentration as standards. Results obtained at the highest dose, 30 mg/kg, BID, expressed as the percentage of change in comparison of the LDL-c, VLDL-c and TG serum concentrations of mice in the test group to those of mice n the control group.
To enable absorption of Example 2 at the 30 mg/kg dose, prepare that compound as 1:1 (w/w) dry mixture with hydroxypropyl methylcellulose prior to addition to acacia vehicle.

human DGAT2 [2] = target: T1, human DGAT2 (Homo sapiens, UniProt Q96PD7); assay: Diacylglycerol Acyltransferase 2 (DGAT2) Cell-Based Assay (HepG2, 13C18-oleate incorporation into triolein); set-up: This assay uses human hepatoma cell-line, HepG2, as a source of acyltransferase activity; endogenous in cells; host or cells: HepG2 (human hepatoma); conditions: HepG2 cells, 13C18-oleate incorporation into triolein normalized to POPC; geometric mean
T1 sequence (Q96PD7 1-388): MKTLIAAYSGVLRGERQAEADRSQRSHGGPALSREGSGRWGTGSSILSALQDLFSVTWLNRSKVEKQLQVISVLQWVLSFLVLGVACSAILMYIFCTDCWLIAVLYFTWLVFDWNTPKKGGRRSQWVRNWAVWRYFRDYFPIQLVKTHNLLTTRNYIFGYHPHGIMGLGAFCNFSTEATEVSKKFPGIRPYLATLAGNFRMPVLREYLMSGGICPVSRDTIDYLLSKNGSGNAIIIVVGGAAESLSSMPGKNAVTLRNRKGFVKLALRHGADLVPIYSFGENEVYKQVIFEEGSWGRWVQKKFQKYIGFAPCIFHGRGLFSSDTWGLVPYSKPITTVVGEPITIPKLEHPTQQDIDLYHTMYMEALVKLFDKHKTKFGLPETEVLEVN
Description: Diacylglycerol Acyltransferase 2 (DGAT2) Cell-Based Assay
The inhibitory activity of compounds against human DGAT2 in a cell environment is evaluated in this assay. This assay uses human hepatoma cell-line, HepG2, as a source of acyltransferase activity.
HepG2 cell line is a commonly used model for metabolic reactions that occur in human hepatocytes in vivo. Synthesis of triglyceride in this cell line is followed by measuring incorporation of isotopically labeled oleate into triolein (a triglyceride with 3 oleoyl moieties).
Dispense the HepG2 cells into a 96-well microplate, which has been previously coated with Poly-D-lysine, in an amount of 50,000 cells/well in 100 μL Minimal Essential Media (MEM) with 10% Fetal Bovine Serum (FBS). Incubate the cells for 16 hr at 37° C. Replace the cell culture medium with MEM containing 2% Bovine Serum Albumin Dissolve the test compound in 0.5% DMSO and prepare serial dilutions in half-log increments. Add the serially diluted test compound into separate wells. Incubate for 0.5 hr at 37° C. Thereafter replace the cell culture medium with a medium of the same composition, but which includes 50 μM ^13C18-oleate and 300 μM hydropropyl-β-cyclodextrine. Incubate for an additional 4 hr at 37° C. Discard the cell culture medium by flipping the microplate over thereby draining the wells and then soaking up any residual media from the wells with a paper towel. […]

human DGAT2 [3] = target: T1, human DGAT2; assay: Diacylglycerol Acyltransferase 2 (DGAT2) Biochemical Assay; set-up: FLAG (N); made in house; host or cells: insect SF9 cells; conditions: recombinant human DGAT2 (FLAG tag, SF9), 14C oleoyl-CoA, 1 hr RT; geometric mean
Description: Diacylglycerol Acyltransferase 2 (DGAT2) Biochemical Assay
The in vitro inhibitory activity of compounds against human DGAT2 is evaluated in this assay. The assay uses recombinant human DGAT2 with a FLAG tag at the amino terminus, expressed in genetically engineered insect SF9 cells, and purified through affinity chromatography.
DGAT2 catalyzes transfer of an acyl moiety from acyl-Coenzyme A onto diacylglycerol, to form triacylglycerol. In this particular embodiment of the assay oleate is used as the acyl moiety that is transferred. To facilitate miscibility of all lipid components, all lipids used in the assay contain oleyl moiety as the only acyl group. […]
Mix SUV suspensions and compound solution with other components of the assay to achieve the following concentration of individual ingredients: TrisHCl (pH 7.5, 150 mM), sucrose (250 mM), MgCl2 (5 mM), dithiothreitol (DTT) (0.5 mM), oleoyl coenzyme A (oleoyl-CoA) (12 μM), 1-^14C oleoyl coenzyme A (oleyl-CoA-^14C) (8 μM), dioleoyl glycerol (DOG) (0.6 mM), and dioleoyl phosphatidylcholine (DOPC) (1.4 mM), DGAT2 protein (0.5 nM), DMSO (1%, v/v), with test compound concentration within a 1 nM to 100 μM range, in 30 μl total volume. […] Measure the radioactivity using a Perkin-Elmer TopCount instrument. […] Calculate the degree of inhibition of DGAT2 by measuring the radioactivity at 10 different concentrations for each compound. […]

plasma triglycerides = assay: In Vivo Pharmacodynamic Assay (reduction in plasma triglycerides); conditions: Mus musculus, po, male C57BL6 mice, gavage 0.1 to 10 mg/kg with 3 mg/kg DGAT1 inhibitor, tyloxapol
Description: In Vivo Pharmacodynamic Assay
This assay measures the potency of compounds by measuring the reduction in plasma triglycerides in mice treated with the test compounds compared to control animals that are treated only with the vehicle solution. Male, C57BL6 mice (10-11 weeks old, each approximately 22 g in weight) are used in this assay.
Triglycerides synthesized in the liver are secreted into circulation as a component of the Very Low Density Lipoprotein (VLDL). To prevent degradation of triglycerides in circulation by the Lipoprotein Lipase (LPL), this assay uses IV injection of a detergent, tyloxapol, which inhibits activity of LPL. Since another enzyme, DGAT1, participates in the synthesis of liver triglyceride, a saturating dose of a DGAT1 inhibitor (sodium{trans-4-[4-(4-amino-7,7-dimethyl-7H-pyrimido[4,5-b][1,4]oxazin-6-yl)phenyl]cyclohexyl}acetate, IUPAC ACDLABS naming convention, see Dow et al. Bioorg. & Med. Chem., (2011) 21(20), 6122-6128) is also used in this assay. […]
Collect the blood via cardiac puncture into tube containing the anti-coagulant EDTA. […] Freeze the plasma samples on dry ice until they are to be analyzed. […] Reduction in total triglycerides in the test mice is calculated relative to the concentration of triglycerides in the control mice.

liver fat content = conditions: therapy with lomitapide; cited from earlier work
[4] = 30 mg/kg BID oral gavage in acacia
[5] = 30 mg/kg BID, compound as 1:1 (w/w) dry mixture with hydroxypropyl methylcellulose in acacia

Compound | % change LDL-c [1, 4] [%] | % change Triglycerides [1, 4] [%] | % change VLDL-c [1, 4] [%] | IC50 (human DGAT2 [2]) [nM] | IC50 (human DGAT2 [3]) [nM] | ED50 (plasma triglycerides) [mg/kg] | % change LDL-c [1, 5] [%] | % change Triglycerides [1, 5] [%] | % change VLDL-c [1, 5] [%] | increase in the liver fat content (liver fat content) [fold]
CNS(=O)(=O)Cc1ccc(Oc2cc(CNc3ncc(Cl)cn3)nc(C)n2)cc1 [Example 1, 1-[4-[6-[[(5-Chloropyrimidin-2-yl)amino]methyl]-2-methyl-pyrimidin-4-yl]oxyphenyl]-N-methyl-methanesulfonamide] | −51 | −63 | −75 | 150 | 91 | 0.29 |  |  |  | 
Cc1nc(CNc2ncc(Cl)cn2)cc(Oc2ccc(CS(N)(=O)=O)cc2)n1 [Example 2] |  |  |  | 150 | 120 | 0.27 | −55 | −72 | −82 | 
O=C(NC1CCN(CCCCC2(C(=O)NCC(F)(F)F)c3ccccc3-c3ccccc32)CC1)c1ccccc1-c1ccc(C(F)(F)F)cc1 [lomitapide] |  |  |  |  |  |  |  |  |  | 8
